Experimental data: patent publication US7425577B2, “Lipase-colipase inhibitor” (Forskarpatent 1 SYD AB, priority 2003, dated 2008)
“And” between values parts separate entries of the source, which are not always exact repeats. Equal values may be shown once. “Also recorded” adds a separate entry of the source.

Assays:
[1] = Serum PYY 3-36, leptin and ghrelin after 5 days of oral administration; assay type: in vivo, female Sprague-Dawley rats
Procedure: (§1) Blood was drawn in rats from the intra-orbital bullar plexus under anaesthesia and collected in ice-cold tubes. Serum was obtained by centrifugation at 3000 g for 15 min at 4° C. For acute effect of dimethylaminoethyl dodecyl ether on blood lipids, overnight-fasted rats were given 200 μl dimethylaminoethyl dodecyl ether plus 1 ml (200 mg) Intralipids orally through a gastric gavage and blood collected at 0, 30, 60, 120 and 180 min. Plasma triglycerides was determined with an Sigma diagnostics kit. Plasma fatty acids were measured by NEFAC kit (Wako chemicals GmbH, Neuss, Germany). Plasma PYY (3-36) and leptin were measured with the PYY Enzyme Immunossay kit and leptin Enzyme Immunossay (Phoenix Pharmaceuticals, USA)
Stat View program was used for statistics analysis. The data were analyzed using two-way ANOVA followed by post hoc tests for comparison of individual differences. Student's t-test was used for the analysis of triglycerides, PYY3-36, leptin and ghrelin data.

[2] = In vivo Intralipid feeding test: free fatty acids and triglycerides in blood serum; parameters: species or system Sprague-Dawley rats
Procedure: Sprague-Dawley rats weighing 200-220 g, stored in cages using a 12 hours of light/12 hours of darkness cycle were used. They had free admittance to food and water prior to the test. The day prior a test the rats were fasted, and were anaesthetised in the morning using diethyl ether. 1 ml of Intralipid (200 mg/ml) with and without inhibitor was fed to the rats by means of a syringe through the mouth and ending in the stomach. Blood samples were taken at time 0, prior to the test start, and then after 30, 60, 120 and 180 minutes after feeding with Intralipid. After centrifugation, serum was separated and stored at −20° C. for analysis. Analyses of free fatty acids, triglycerides and total cholesterol were made. The test has been repeated, also using different dosages of the inhibitors tested.

[3] = Evaluation of food intake and body weight, oral gavage for 5 days; assay type: in vivo, female Sprague-Dawley rats
Procedure: Female female Sprague-Dawley rats were used for all experiments. Rats were housed in a temperature-controlled room (22±1° C.) under a 12-h light (6:00-18:00)/12-h cycle, given free access to water, and fed an libitum on a standard chow unless otherwise stated for a high-fat diet experiment. All procedures using animals were approved by the local ethics committee and followed the guidelines for experiments in animals (European Economic Community Council Directive 86/609/EEC).
For measurement of food consumption rats were individually housed in cage and given a high-fat diet for a week before the beginning of the experiment. […] Rat with as libitum access to high-fat food were orally given dimethylaminoethyl dodecyl ether (37.5 or 50 μl dissolved in 1% methycellulose) through a gastric gavage or 1% methyl cellulose at the onset of the dark cycle (18:00) and food intake was measured at 15 h following dimethylaminoethyl dodecyl ether administration from pre-weighed portions of food dispensed from were cage top. Cages were carefully monitored for evidence of food spillage or grinding.

[4] = Acute effect on blood lipids: single dose plus Intralipid in overnight-fasted rats; assay type: in vivo, female Sprague-Dawley rats; conditions: single dose 200 μl plus 1 ml Intralipid (200 mg); 0, 30, 60, 120 and 180 min
Procedure: as §1

CCCCCCCCCCCCOCCN(C)C [dimethylaminoethyl dodecyl ether]
Serum PYY 3-36 level vs controls ([1]; fasted rats, 50 μl for 5 days): no difference
Serum ghrelin level vs controls ([1]; fasted rats, 50 μl for 5 days): markedly increased
Serum leptin level vs controls ([1]; fasted rats, 50 μl for 5 days): markedly decreased; also recorded: significantly decreased
Serum PYY3-36 level ([1]; treated rats, 5 days, control rats 0.86±0.24): 0.85 ± 0.26 ng/mL
Triglycerides ([2]; rat blood serum, 0 min (prior to Intralipid feeding)): 103 mg/dL
Free fatty acids ([2]; rat blood serum, 0 min (prior to Intralipid feeding), listed as Compound C12): 0.56 mmol and 0.57 mmol
Triglycerides ([2]; rat blood serum, 30 min after 1 ml Intralipid with inhibitor): 95 mg/dL
Free fatty acids ([2]; rat blood serum, 30 min after 1 ml Intralipid with inhibitor, listed as Compound C12): 0.63 mmol and 0.67 mmol
Triglycerides ([2]; rat blood serum, 60 min after 1 ml Intralipid with inhibitor): 98 mg/dL
Free fatty acids ([2]; rat blood serum, 60 min after 1 ml Intralipid with inhibitor, listed as Compound C12): 0.70 mmol and 0.72 mmol
Triglycerides ([2]; rat blood serum, 120 min after 1 ml Intralipid with inhibitor): 95 mg/dL
Free fatty acids ([2]; rat blood serum, 120 min after 1 ml Intralipid with inhibitor, listed as Compound C12): 0.60 mmol and 0.72 mmol
Triglycerides ([2]; rat blood serum, 180 min after 1 ml Intralipid with inhibitor): 77 mg/dL
Free fatty acids ([2]; rat blood serum, 180 min after 1 ml Intralipid with inhibitor, listed as Compound C12): 0.62 mmol and 0.74 mmol
Free fatty acids (% of control) ([2]; rat, dose of active compound 10 μg): 83.7 % of control
Free fatty acids ([2]; rat, dose of active compound 10 μg, dose 0: 1.45): 1.25 mM
Free fatty acids (% of control) ([2]; rat, dose of active compound 50 μg): 56.1 % of control
Free fatty acids ([2]; rat, dose of active compound 50 μg, dose 0: 1.45): 0.83 mM
Free fatty acids (% of control) ([2]; rat, dose of active compound 100 μg): 57.4 % of control
Free fatty acids ([2]; rat, dose of active compound 100 μg, dose 0: 1.45): 0.85 mM
Free fatty acids (% of control) ([2]; rat, dose of active compound 200 μg): 74.3 % of control
Free fatty acids ([2]; rat, dose of active compound 200 μg, dose 0: 1.45): 1.1 mM
Food intake vs vehicle ([3]; rats fed high-fat diet, 25 μl orally): no food intake inhibition
Food intake vs vehicle ([3]; rats fed high-fat diet, 37.5 μl by gastric gavage): a trend towards reduced food intake was observed, however this did not reach statistic significance
Food intake vs vehicle ([3]; rats fed high-fat diet, 50 μl by gastric gavage, up to 5 days): highly significant reduction in food intake; also recorded: significantly inhibited
Body weight vs non-treated group ([3]; rats fed high-fat diet, 50 μl daily for 5 days): decreased body weight; also recorded: significantly loss of body weight
Food intake vs controls ([3]; rats fed low-fat diet, 37.5 and 50 μl, 5 testing days): failed to decrease food intake
Serum (plasma) fatty acids vs Intralipid alone [4]: significantly reduced; also recorded: decreased
Serum (plasma) triglycerides vs Intralipid alone [4]: significantly reduced
